“Also recorded” adds a separate entry of the source. Where two headings read alike, the source gives them in different places.
What was measured:
[1] = tested on: NQO1; assay: NQO1 activity in Hepa1c1c7 cells (Prochaska assay, menadione substrate); format: cell-based, mouse; details: 48 h
Description: The lysates of Hepa1c1c7 cells which were plated in 96-well plates at 10^4 cells per well, grown for 24 h, and then exposed to serial dilutions of inducers for 48 h.

[2] = tested on: ALDH; assay: Total ALDH activity in Hepa1c1c7 cell homogenates (propionaldehyde substrate, fluorimetric); format: cell-based, mouse
Description: To determine total ALDH activity, Hepa1c1c7 or MEF cells were plated into 6-cm plates at 6.0×10^5 or 1.2×10^6 cells/plate, incubated for 24 h at 37° C. in a 5% CO2 atmosphere, and then treated with serial dilutions of inducers. The inducers were dissolved in acetonitrile or DMSO and added to medium so that final concentrations of the solvents was less than 0.5 or 0.1% v/v, respectively. […] The assay was started by addition of 10 μL of 90 mM propionaldehyde, bringing the total volume to 200 μL. […] Blank reaction rates without propionaldehyde were also determined.

[3] = tested on: Aldh3a1; assay: mRNA expression of Aldh3a1 in Hepa1c1c7 cells (real-time PCR); format: cell-based, mouse; details: 24 hours, SF 1 or 3 μM, TP-225 0.003 or 0.01 μM, BNF 0.3 or 1 μM
Description: Total RNA was extracted from Hepa1c1c7 cells that had been exposed to serial dilutions of inducers for 24 h, or from RNA-stabilized tissues (stored in TRizol) from mice, followed by reverse transcription into cDNA. The cDNA was subjected to quantitative real-time PCR analysis by using SYBR Green fluorescence with 7000 Sequence Detection System. […] Relative expressions of individual mRNAs for ALDH were normalized to β-actin as an endogenous control, and the expression rate was calculated using the comparative ΔΔCt method.

[4] = tested on: ALDH; details: 1 week; for Cytosolic/microsomal and mitochondrial ALDH activities, fold above control: glandular-stomach
Description: (§1) All animal experiments were performed in compliance with National Institute of Health Guidelines and those of Animal Care and Use Committee of the Johns Hopkins University. […] After 1 week on these diets, mice were euthanized and their liver, forestomach, glandular stomach, and upper small intestine were harvested, frozen in liquid nitrogen, and stored at −80° C. until analyzed. A small portion of each tissue was stored in RNA stabilizing solution at 4° C. until total RNA extraction.
To determine total ALDH activity, Hepa1c1c7 or MEF cells were plated into 6-cm plates at 6.0×10^5 or 1.2×10^6 cells/plate, incubated for 24 h at 37° C. in a 5% CO2 atmosphere, and then treated with serial dilutions of inducers. The inducers were dissolved in acetonitrile or DMSO and added to medium so that final concentrations of the solvents was less than 0.5 or 0.1% v/v, respectively. After 48 h of treatment, cells were washed twice with PBS, scraped from the plates, and homogenized in micro-homogenizers at 4° C. The homogenates were centrifuged at 5,000×g for 15 min at 4° C. and the supernatant fractions were collected. ALDH activity was measured fluorimetrically in 96-well plates (white-walled) by modification of the method of Koivula et al. (1975). The assay mixture (190 μL) contained 70 mM sodium pyrophosphate buffer (pH 8.0), 1.67 mM pyrazole, 1.33 mM NAD, and supernatant fraction. The assay was started by addition of 10 μL of 90 mM propionaldehyde, bringing the total volume to 200 μL. The initial velocity of NADH generation was measured (λex 340 nm and λem 460 nm) at 25° C. for 10 min in a micro-plate fluorometer. Blank reaction rates without propionaldehyde were also determined. The ALDH velocity was normalized to the protein concentration and expressed as a change in fluorescent units per min per mg of protein.
To determine ALDH activities of cytosolic/microsomal and mitochondrial fractions individually, cells or harvested tissues were homogenized at 4° C. in 10 mM Tris-HCl (pH 7.4) containing 0.25 M sucrose and 1 mM 2-mercaptoethanol and centrifuged at 750×g for 15 min to remove nuclei and cell debris. Supernatant fractions were then centrifuged twice at 12,000×g for 20 min to obtain the cytosolic/microsomal and the precipitated mitochondrial fractions. Mitochondrial fractions were suspended in 0.25 M sucrose, diluted with one-half volume of 1% sodium bicarbonate containing 1% sodium deoxycholate (w/v), and sonicated in a Branson Sonicator at 4° C. for five (5) 2-minute periods for a total of 10 min before assays.

[5] = tested on: ALDH in Nrf2−/− MEFs; details: stepwise concentration of SF, 48 h
Description: (§2) All cell lines were grown in 5% CO2 at 37° C. Murine hepatoma cell line, Hepa1c1c7 was cultured in α-MEM supplemented with 10% (v/v) heat inactivated FBS. Mouse embryo fibroblasts (MEFs) derived from day 13.5 embryos of wild-type or Nrf2-knockout C57BL/6 mice were cultured in Iscoves Modified Dulbecco's Medium (with L-glutamine) supplemented with human recombinant epidermal growth factor (10 ng/mL), 1× insulin/transferring/selenium, and 10% (v/v) heat-inactivated FBS.
(§3) To determine total ALDH activity, Hepa1c1c7 or MEF cells were plated into 6-cm plates at 6.0×10^5 or 1.2×10^6 cells/plate, incubated for 24 h at 37° C. in a 5% CO2 atmosphere, and then treated with serial dilutions of inducers. The inducers were dissolved in acetonitrile or DMSO and added to medium so that final concentrations of the solvents was less than 0.5 or 0.1% v/v, respectively. […] ALDH activity was measured fluorimetrically in 96-well plates (white-walled) by modification of the method of Koivula et al. (1975). […] The initial velocity of NADH generation was measured (λex 340 nm and λem 460 nm) at 25° C. for 10 min in a micro-plate fluorometer. Blank reaction rates without propionaldehyde were also determined. The ALDH velocity was normalized to the protein concentration and expressed as a change in fluorescent units per min per mg of protein.

[6] = tested on: ALDH in WT MEFs; details: stepwise concentration of SF, 48 h
Description: as §2, §3

[7] = Description: (§4) After fasting overnight, they were gavaged with 35% (v/v) ethanol solution at a dose of 2.0 g/kg. Before, and 0.5, 1, 2, 3, 4, and 6 h after administration of ethanol, 20 μL of blood were collected by nicking the tail vein. The mice were then euthanized and their blood, liver, stomach and upper intestine were collected.
(§5) Blood ethanol and acetaldehyde levels in mice were determined enzymatically by modification of the method of Tottmar et al. (Tottmar 1978). Whole blood samples (20 μL) were obtained by repeated incisions of mouse tail veins. The blood was immediately mixed with 200 μL of 4% (v/v) perchloric acid (PCA) in sealed tubes at 4° C., incubated for 10 min, and then centrifuged at 3000×g for 10 min. The pH values of the supernatant fractions were adjusted to 7.5-8.0 by adding 20 μL of 3 M K2CO3 in new tubes. After removing precipitated KClO4 by centrifugation at 3000×g for 10 min, supernatant fractions were stored in sealed tubes at 4° C. until assayed.
Determination of acetaldehyde was performed in 10 mm quarts fluorescence cuvettes in a final volume of 2.33 mL assay mixture containing of assay mixture containing 50 mM sodium pyrophosphate (pH 8.8), 0.1 mM pyrazole, 0.1 mM NAD and 0.2 units/mL of purified ALDH (potassium activated from baker's yeast) with a luminescence spectrophotometer. Before and 5 min after addition of 170 μL of the supernatant, intensities were monitored (λex: 340 nm and λem: 460 nm). The acetaldehyde level in blood was calculated from change of intensity using acetaldehyde standard curve with range from 1.56 to 50 μM in blood. The standard curve was made by applying serial dilution of acetaldehyde to PCA treatment process same as blood.

[8] = tested on: glutathione; details: intake of SF; cited from earlier work
[9] = tested on: NQO1; details: liver, both parts of stomach, upper intestine; high dose 20 μmol SF/3 g diet/day, 1 week
Description: as §1

[10] = 5 or 20 μmol SF/3 g diet/day, 1 week
Description: as §1

[11] = tested on: Aldh1a1; details: liver, SF diet 1 week
Description: as §1
(§6) Total RNA was extracted from Hepa1c1c7 cells that had been exposed to serial dilutions of inducers for 24 h, or from RNA-stabilized tissues (stored in TRizol) from mice, followed by reverse transcription into cDNA. The cDNA was subjected to quantitative real-time PCR analysis by using SYBR Green fluorescence with 7000 Sequence Detection System. All primers used in this study were designed based on previous reports. Relative expressions of individual mRNAs for ALDH were normalized to β-actin as an endogenous control, and the expression rate was calculated using the comparative ΔΔCt method.

[12] = tested on: Aldh3a1; details: SF diet 1 week
Description: as §1, §6

[13] = tested on: Aldh2; details: liver, SF diet 1 week
Description: as §1, §6

[14] = human research studies; cited from earlier work
[15] = 20 μmol SF/3 g diet/day 1 week, then 2.0 g/kg ethanol oral
Description: as §4, §5

[16] = liver, high dose 20 μmol SF/3 g diet/day

SMILES: Oc1ccc(C=Cc2cc(O)cc(O)c2)cc1 [resveratrol, reference compound]
- CD value (concentration required to double the enzyme activity) for induction of NQO1 [1]: > 50 µM
- CD value (concentration required to double the enzyme activity) for induction of ALDH ([2]; Hepa1c1c7 cells, 48 h): 120.7 µM

SMILES: CC1(C)CC[C@]2(C#N)CC[C@]3(C)[C@H](C(=O)C=C4[C@@]5(C)C=C(C#N)C(=O)C(C)(C)[C@@H]5CC[C@]43C)[C@@H]2C1 [TP-225]
- CD value (concentration required to double the enzyme activity) for induction of NQO1 [1]: 0.00038 µM
- CD value (concentration required to double the enzyme activity) for induction of ALDH ([2]; Hepa1c1c7 cells, 48 h): 0.0016 µM
- Aldh3a1 mRNA expression, fold increase [3]: ~5 fold

SMILES: O=c1cc(-c2ccccc2)oc2ccc3ccccc3c12 [BNF]
- Aldh3a1 mRNA expression, fold increase [3]: ~5 fold

SMILES: C[S@@+]([O-])CCCCN=C=S [SF, 1-isothiocyanato-4R-(methylsulfinyl)butane]
- Cytosolic/microsomal and mitochondrial ALDH activities, fold above control ([4]; (high) 20 μmol SF/3 g diet/day): 5.1 fold
- Cytosolic/microsomal and mitochondrial ALDH activities, fold above control ([4]; (low) 5 μmol SF/3 g diet/day): 4.1 fold
- Cytosolic/microsomal ALDH activity, fold increase [4, 16]: 1.4 fold
- Mitochondrial ALDH activity, fold increase [4, 16]: 1.5 fold
- Effect on total ALDH activity [5]: altogether absent
- Effect on total ALDH activity [6]: increased in a dose dependent manner
- Total ALDH activity, fold above control levels ([2]; 3 μM SF, additional 6 hours after first 12 h): 1.5 fold
- Total ALDH activity, fold above control levels ([2]; 3 μM SF, additional 12 hours after first 12 h): 1.9 fold
- Total ALDH activity, fold above control levels ([2]; 3 μM SF, additional 24 hours after first 12 h): 2.1 fold
- Total ALDH activity vs control ([2]; 3 μM SF, first 12 h): not increased
- Concentration at which significant effects on total ALDH activity were observed ([2]; Hepa1c1c7 cells, 48 hours treatment): ≥ 0.3 µM
- Effect on total ALDH activity ([2]; Hepa1c1c7 cells, serial concentrations, 48 h): dramatically and dose dependently increased; also recorded: increased total ALDH activity in Hepa1c1c7 cells in a dose dependent manner
- Treatment time after which total ALDH activity increased ([2]; time course measurement, treatment with SF): 12 to 18 h
- AUC of blood acetaldehyde ([7]; 20 μmol SF/3 g diet/day 1 week, then 2.0 g/kg ethanol oral, control 83.8±6.1): 54.5 ± 5.1 µmol·h/L
- Effect on blood acetaldehyde levels ([7]; 20 μmol SF/3 g/day 1 week, then 2.0 g/kg ethanol oral (FIG. 9)): remarkably lowered
- Acetaldehyde elimination constant relative to control mice ([7]; SF-fed mice): roughly 2 times
- Prevention of increase in blood acetaldehyde level ([7]; ascending phase, 20 μmol SF/3 g diet/day 1 week, then 2.0 g/kg ethanol oral): 30%
- Elimination rate constant k of blood acetaldehyde ([7]; first order model, SF fed mice, control 0.21±0.02, p<0.01): 0.40 ± 0.03 h⁻¹
- Initial blood level C0 of acetaldehyde ([7]; first order model, SF fed mice, control 28.62±2.1, NS): 32.38 ± 2.4 µM
- Glutathione levels in liver [8]: increased glutathione levels in liver
- Aldh3a1 mRNA expression, fold increase [3]: ~5 fold
- NQO1 activity, fold increase compared to control [9]: ≤ 2.2 fold
- Body weights vs control group [10]: no significant differences
- Food intakes vs control group [10]: no significant differences
- Aldh1a1 expression level, fold increase [11]: 2.5 fold
- Aldh3a1 expression, fold increase ([12]; forestomach): 3 fold
- Aldh3a1 expression, fold increase ([12]; glandular stomach): 6.5 fold
- Aldh2 expression level, fold increase [13]: 1.8 fold
- Adverse effects on administration [14]: not shown any significant adverse effects
- AUC of blood ethanol vs control [15]: no significant difference
- Effect on blood ethanol level ([15]; only in descending phase): slightly affected
